Experimental findings from ChEMBL document CHEMBL1201862, “PubChem BioAssay data set” (2004) are described below.

Among the test systems are A498; BT-549; DU-145; EKVX; HCT-116; HCT-15; IGROV-1; NCI-H23; NCI-H460; NCI-H522; NCI/ADR-RES; OVCAR-3; RPMI-8226; RXF 393; SF-268; SK-OV-3; SNB-19; TK-10; UACC-257.
Assay in all cases: inhibition of tumour cell growth, NCI panel, 48 h

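Cultured in 96-well plates, cells were exposed to test compound for 48 hours across five concentrations. The concentration for 50% growth inhibition is given as GI50.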 The source made the active and inactive calls. Cut-off read from the data, not from the text of the source: active = GI50 up to about 1.1 µM and inactive = higher.

For `COc1cc(C2c3cc4c(cc3OC(NNC(N)=O)C2C)OCO4)cc(OC)c1O` (stereo not given), the GI50 was 3.41 µM (inactive) in the test with A498; 24.5 µM (inactive) with BT-549; 3.96 µM (inactive) in the test with DU-145; > 28.4 µM (inactive) in the test with EKVX; 1.58 µM (inactive) in the test with HCT-116; 13 µM with HCT-15. The GI50 in the test with IGROV-1 was 1.62 µM (inactive); with NCI-H23, 4.92 µM (inactive); in the test on NCI-H460, 2.12 µM (inactive); with NCI-H522 it was 0.285 µM (active); in the test with NCI/ADR-RES it was 21.3 µM (inactive); in the test with OVCAR-3, 1.03 µM (active). The GI50 in the test on RPMI-8226 was 1.64 µM (inactive); in the test on RXF 393, 0.598 µM (active); with SF-268, 8.26 µM (inactive); in the test with SK-OV-3, 3.11 µM (inactive); in the test with SNB-19, 7.29 µM (inactive); in the test with TK-10, 13.8 µM (inactive). Further, the GI50 with UACC-257 is 3.19 µM (inactive).

Consider `CC12CC3OC(=O)C1COC14OC5(C2C1=O)C(O)(CCC1C4CC2OC24CC=CC(=O)C14C)C(=O)OC35C` (stereo not given), for which the GI50 in the test on A498 was 18.8 µM (inactive); in the test on BT-549, 2.64 µM (inactive); in the test with DU-145, 14.6 µM (inactive); in the test on EKVX it was 32 µM (inactive); in the test with HCT-116 it was 11.6 µM (inactive); in the test on HCT-15, 16.4 µM. Besides, the GI50 is 18.4 µM (inactive) in the test on IGROV-1; 15.4 µM (inactive) in the test on NCI-H23; 30.4 µM (inactive) with NCI-H460; 5.6 µM (inactive) with NCI-H522; 38.1 µM (inactive) in the test with NCI/ADR-RES; 13.9 µM (inactive) with OVCAR-3. The GI50 in the test with RPMI-8226 was 19.2 µM (inactive); in the test with RXF 393, 3.99 µM (inactive); in the test with SF-268 it was 36.7 µM (inactive); with SK-OV-3 it was 28.6 µM (inactive); with SNB-19, 20 µM (inactive); in the test on TK-10, 13.6 µM (inactive). Further, in the test on UACC-257, the GI50 was 13 µM (inactive).

Take `CC(C)NC(=O)OCc1c(COC(=O)NC(C)C)c(-c2ccc[n+](COC(=O)C(C)(C)C)c2)n2c1CCC2`: the GI50 in the test on A498 was 32.7 µM (inactive); with BT-549 it was > 100 µM (inactive); in the test on DU-145, > 91.4 µM (inactive); in the test on EKVX it was > 100 µM (inactive); in the test with HCT-116, > 91.6 µM (inactive); with HCT-15, greater than 100 µM. In addition, the GI50 was > 80.7 µM (inactive) with IGROV-1; 53.1 µM (inactive) in the test with NCI-H23; 40.9 µM (inactive) in the test on NCI-H460; 35 µM (inactive) in the test on NCI-H522; > 73.1 µM (inactive) in the test with NCI/ADR-RES; > 100 µM (inactive) with OVCAR-3. Moreover, the GI50 in the test with RPMI-8226 is > 100 µM (inactive); in the test with RXF 393, 30.5 µM (inactive); in the test with SF-268 it was 57.7 µM (inactive); with SK-OV-3, > 74.1 µM (inactive); in the test with SNB-19, > 100 µM (inactive); in the test on TK-10 it was > 100 µM (inactive). Further, the GI50 in the test with UACC-257 is > 100 µM (inactive).

As for `O=C(/C=C/c1ccc2c(c1)OCO2)CC(=O)C(=O)c1c[nH]c2ccccc12`, the GI50 in the test on A498 is 65.5 µM (inactive); in the test with BT-549, 25.9 µM (inactive); in the test on DU-145, 42.9 µM (inactive); with EKVX it was 38.5 µM (inactive); in the test with HCT-116, 31.8 µM (inactive); with HCT-15, 36.8 µM. For the same compound, the GI50 is 47.8 µM (inactive) with IGROV-1; 34.2 µM (inactive) in the test on NCI-H23; 33.7 µM (inactive) with NCI-H460; 68.5 µM (inactive) in the test on NCI-H522; > 100 µM (inactive) in the test with NCI/ADR-RES; 32 µM (inactive) with OVCAR-3. Also, the GI50 in the test on RPMI-8226 was 35.4 µM (inactive); with RXF 393, 31.6 µM (inactive); in the test on SF-268, 37.2 µM (inactive); with SK-OV-3, 35.2 µM (inactive); in the test on SNB-19 it was 46.2 µM (inactive); in the test with TK-10, 38.4 µM (inactive). Also, the GI50 with UACC-257 is 51.8 µM (inactive).

In the case of `C=C1C(=O)O[C@H]2C/C(C)=C/CC/C(C)=C/CC[C@@](C)(O)[C@@H](I)C[C@@H]12`, the GI50 in the test with A498 was 17.7 µM (inactive); in the test with BT-549 it was 1.13 µM (inactive); in the test on DU-145 it was 9.44 µM (inactive); in the test on EKVX, 7.14 µM (inactive); in the test with HCT-116, 4.14 µM (inactive); with HCT-15, 6.04 µM. For the same compound, the GI50 is 3.15 µM (inactive) in the test on IGROV-1; 0.0501 µM (active) with NCI-H23; 13.2 µM (inactive) in the test on NCI-H460; 2.64 µM (inactive) in the test on NCI-H522; 6.3 µM (inactive) in the test with NCI/ADR-RES; 12.3 µM (inactive) with OVCAR-3. For the same compound, the GI50 with RPMI-8226 was 2.69 µM (inactive); in the test with RXF 393 it was 3.84 µM (inactive); in the test on SF-268, 14 µM (inactive); with SK-OV-3, 16 µM (inactive); in the test with SNB-19, 15 µM (inactive); in the test with TK-10, 11.5 µM (inactive). For the same compound, the GI50 in the test with UACC-257 was 12.4 µM (inactive).

In the case of `COc1ccc(OC)c2c1C[C@@H]1C(C#N)N3[C@H](Cc4c(OC)ccc(OC)c4[C@@H]3C)C(=O)N1[C@H]2C` (stereo not given in full), the GI50 is 11.2 µM (inactive) in the test with A498; 1.97 µM (inactive) in the test with BT-549; 22.4 µM (inactive) with DU-145; 5.77 µM (inactive) with EKVX; 3.83 µM (inactive) in the test with HCT-116; 3.08 µM in the test on HCT-15. Also, the GI50 with IGROV-1 was 4.56 µM (inactive); with NCI-H23, 4.5 µM (inactive); in the test on NCI-H460, 7.85 µM (inactive); with NCI-H522 it was 1.68 µM (inactive); in the test on NCI/ADR-RES, 4.12 µM (inactive); in the test on OVCAR-3 it was 2.07 µM (inactive). Moreover, the GI50 in the test on RPMI-8226 is 2.53 µM (inactive); with RXF 393, 1.83 µM (inactive); in the test with SF-268, 2.15 µM (inactive); in the test on SK-OV-3, 11.9 µM (inactive); in the test on SNB-19, 2.15 µM (inactive); in the test on TK-10, 3.57 µM (inactive). Also, the GI50 in the test on UACC-257 is 2.51 µM (inactive).

Turning to `CCCCCCCCCCCCC1NC(=N)NC2(CCCO2)C1C(=O)OC` (stereo not given), the GI50 with A498 is 23.3 µM (inactive); in the test with BT-549, 4.3 µM (inactive); with DU-145, 15.3 µM (inactive); in the test on EKVX, 17.5 µM (inactive); in the test on HCT-116, 2.47 µM (inactive); with HCT-15, 16.7 µM. Also, the GI50 in the test on IGROV-1 was 2.3 µM (inactive); in the test on NCI-H23, 4.39 µM (inactive); with NCI-H460, 2.99 µM (inactive); with NCI-H522, 3.45 µM (inactive); in the test on NCI/ADR-RES it was 17.6 µM (inactive); in the test on OVCAR-3, 3.52 µM (inactive). In addition, the GI50 with RPMI-8226 was 2.61 µM (inactive); in the test on RXF 393, 3 µM (inactive); in the test with SF-268, 3.84 µM (inactive); with SK-OV-3, 10 µM (inactive); in the test on SNB-19, 2.76 µM (inactive); in the test on TK-10 it was 4.79 µM (inactive). The GI50 with UACC-257 was 4.3 µM (inactive).

Regarding `Clc1ccc(Cc2nc3cc(CCN4CCN(c5ccccc5)CC4)ccc3[nH]2)cc1`, the GI50 in the test with A498 was 14.4 µM (inactive); with BT-549 it was 16.4 µM (inactive); in the test on DU-145, 17.4 µM (inactive); in the test on EKVX it was 22 µM (inactive); with HCT-116, 12 µM (inactive); in the test on HCT-15, 15 µM. Further, the GI50 is 27.5 µM (inactive) in the test with IGROV-1; 13.8 µM (inactive) in the test with NCI-H23; 12.9 µM (inactive) in the test with NCI-H460; 14.1 µM (inactive) in the test with NCI-H522; 19.1 µM (inactive) in the test on NCI/ADR-RES; 13 µM (inactive) in the test on OVCAR-3. Besides, the GI50 is 4.6 µM (inactive) in the test with RPMI-8226; 5.24 µM (inactive) with RXF 393; 25.5 µM (inactive) with SF-268; 17.9 µM (inactive) with SK-OV-3; 20.7 µM (inactive) in the test with SNB-19; 12.8 µM (inactive) with TK-10. The GI50 with UACC-257 is 5.42 µM (inactive).

Turning to `CC1CCC(=O)C(C(=O)CC2CC(=O)N(C)C(=O)C2)C1` (stereo not given), the GI50 in the test with A498 is > 100 µM (inactive); in the test with BT-549 it was > 100 µM (inactive); with DU-145, > 100 µM (inactive); in the test on EKVX, > 100 µM (inactive); in the test with HCT-116 it was > 100 µM (inactive); in the test with HCT-15, greater than 100 µM. The GI50 with IGROV-1, in the test on NCI-H23, in the test on NCI-H460, with NCI-H522, in the test on NCI/ADR-RES and in the test with OVCAR-3 was > 100 µM (inactive) each time. The GI50 in the test with RPMI-8226, with RXF 393, in the test on SF-268, in the test with SK-OV-3, with SNB-19 and with TK-10 was > 100 µM (inactive) each time. Also, in the test with UACC-257, the GI50 was > 100 µM (inactive).

`CNc1ccc(-c2nc3cc(C)ccc3o2)cc1`: the GI50 is 27.4 µM (inactive) with A498; 45.8 µM (inactive) with BT-549; > 100 µM (inactive) in the test with DU-145; 32.4 µM (inactive) in the test on EKVX; > 100 µM (inactive) in the test on HCT-116; greater than 100 µM in the test with HCT-15. The GI50 is > 100 µM (inactive) in the test on IGROV-1; > 100 µM (inactive) in the test on NCI-H23; > 100 µM (inactive) in the test on NCI-H460; 88.1 µM (inactive) with NCI-H522; 64.6 µM (inactive) in the test with NCI/ADR-RES; > 100 µM (inactive) with OVCAR-3. The GI50 with RPMI-8226 was > 100 µM (inactive); with RXF 393 it was 22.4 µM (inactive); in the test on SF-268, 42.7 µM (inactive); in the test on SK-OV-3 it was 18.2 µM (inactive); with SNB-19 it was 57.5 µM (inactive); in the test on TK-10 it was 67.8 µM (inactive). Further, the GI50 in the test with UACC-257 was > 100 µM (inactive).
